Structures are written as SMILES. Entries after “also recorded” stand apart in the source; their conditions may differ. Read-outs that look alike come from different tables or passages of the source.

In series [1] the test system is primary hepatocytes (HUM4011).
The test system of series [2] is iHeps in iMPCCs.
The conditions of series [3]: cited from earlier work.
In series [4] the test system is iHeps in iMPCCs. Briefly: Drug toxicity screening in iMPCCs (albumin, ATP, urea; binary decision and TC50).
For series [5] the following is noted: negative number: withdrawn from the market; higher positive numbers: greater DILI concern; cited from earlier work.
Series [6] deals with iHeps in iCCs.
Series [7] concerns primary human hepatocytes in MPCCs. The conditions noted are these: (ref 19), cited from earlier work; for TC50 in MPCCs ATP: concentration at which activity decreases by 50% of DMSO-only controls.
Series [8] has as its system iMPCCs. Put plainly: Drug toxicity studies: iMPCCs treated for 8 days with multiple doses. The conditions noted are these: increasing doses.
Series [9] relates to CYP3A4. The settings on record: human.
Series [10] concerns CYP2C9. The settings on record: rifampin 25 μM or phenobarbital 1 mM, 4 days.
The subject of series [11] is CYP2C9. The conditions noted are these: rifampin 25 μM or phenobarbital 1 mM, 4 days. This is another data set of the same source.
Series [12] concerns CYP1A2. Briefly: CYP1A2 induction in iMPCCs (7-ethoxyresorufin O-dealkylation). Format: cell-based, human.
Series [13] relates to iMPCCs.
[14] abbreviates: total human plasma concentration.

As to `Nc1ccc(S(=O)(=O)c2ccc(N)cc2)cc1` [Dapsone], the “toxicity call in another donor of primary hepatocytes” value (“toxicity call in another donor” for short) in series [1] is “false negative”. For the same molecule, in series [2], the “Model predictions iMPCC (binary decision)” value (“Model predictions iMPCC” for short) is “−” and the “toxicity call in iMPCCs / iHeps” value is reported as “false negative result”. Also, in [3] (setting [14]), the Cmax was 6.01 µM.

For the molecule `NNC(=O)c1ccncc1` [Isoniazid], the “TC50 in MPCCs Albumin” value in series [4] is 6.6815 mM. Besides, the “toxicity call in iMPCCs / iHeps” value in [2] was “toxic”. Further, the Cmax in series [3] (setting [14]) was 76.6 µM. Moreover, the “DILI Sev (DILI severity scores from the LTKB of the FDA)” value (“DILI Sev” below) in series [5] is on record as 8. Moreover, in series [6], the “Model predictions iCC (binary decision)” value is “−” and the “toxicity call in iCCs” value is listed as “non-toxic”. The “TC50 in MPCCs Urea” value in [7] was 4.5796 mM.

For the molecule `CC(C(=O)O)c1ccc(-c2ccccc2)c(F)c1` (stereo not drawn) [Flurbiprofen], the “TC50 in MPCCs Albumin” value in [4] came out at 5.6834 mM. In addition, in series [2] (human, 6 days), the “comparison of urea TC50 values, iHeps versus primary hepatocytes” value is “higher TC50 in iHeps”. The Cmax in [3] (setting [14]) is 57.4 µM. Further, the “DILI Sev” value in series [5] was 3. In addition, in series [7], the “TC50 in MPCCs Albumin” value was 2.4068 mM, the “TC50 in MPCCs Urea” value was 2.459 mM and the “TC50 in MPCCs ATP” value is 3.3511 mM.

`COc1ccc2c(c1)[C@]13CCCC[C@@H]1[C@H](C2)N(C)CC3` [Dextromethorphan HBr]: the Cmax in [3] (human, in vivo) is 0.028 µM. Further, in series [8], the “albumin production in iMPCCs” value was “minimally affected” and the “urea production in iMPCCs” value was “minimally affected”.

Regarding `CCC1(c2ccccc2)C(=O)NC(=O)NC1=O` [phenobarbital], in series [9], the “fold induction of CYP3A4 transcripts in iMPCCs relative to PHH-MPCCs” value was 60-130% and the “induction in CYP3A4 functions in iMPCCs relative to PHH-MPCCs” value is listed as 44-79%. In [10], the “CYP2C9 functional activity induction in iMPCCs” value is recorded as “significant increases; also recorded: induced” and the “CYP2C9 gene expression induction in iMPCCs” value is recorded as “inducible; also recorded: induced”. Also, the “CYP2C9 induction response in iCCs” value in series [11] is “induced functional activity; also recorded: severely blunted”.

Regarding `O=C(O)/C=C\C(=O)O` [Maleic acid], the “toxicity call in another donor” value in series [1] is “borderline positive”. The “Model predictions iMPCC” value in series [2] is reported as “−”. Further, the Cmax in series [3] (setting [14]) is 1 µM.

On to `COc1ccc2[nH]c([S+]([O-])Cc3ncc(C)c(OC)c3C)nc2c1` (stereo not drawn) [omeprazole], for which the “induction of iMPCC CYP1A2 activity” value in [12] (4 days) is on record as “dose-dependent manner”. In addition, the “CYP1A2 fold induction in iMPCCs as % of values in PHH-MPCCs” value in [12] (same dose and duration) is on record as roughly 70%.

`CC(=O)Nc1nnc(S(N)(=O)=O)s1` [Acetazolamide]: the “toxicity call in another donor” value in [1] is on record as “false negative”. Further, the “Model predictions iMPCC” value in [2] is on record as “−”. In [3] (setting [14]), the Cmax was 135 µM.

With `O=P1(N(CCCl)CCCl)NCCCO1` (stereo not drawn) [Cyclophosphamide], the “TC50 in MPCCs Albumin” value in [4] turned out to be 18.6707 mM. In addition, in series [3] (setting [14]), the peak concentration (Cmax) is 265 µM. For the same molecule, in [7], the “TC50 in MPCCs Albumin” value was 1.4494 mM, the “TC50 in MPCCs Urea” value was 1.746 mM and the “TC50 in MPCCs ATP” value is 6.165 mM.

For the molecule `Cc1c(C)c2c(c(C)c1O)CCC(C)(COc1ccc(CC3SC(=O)NC3=O)cc1)O2` (stereo not drawn) [Troglitazone], in [13], the “albumin production in iMPCCs” value is given as “declined significantly” and the “urea production in iMPCCs” value is reported as “declined significantly”. For the same molecule, the “DILI Sev” value in series [5] is reported as −2.

Broadly, the Cmax is the maximum level reached in the sampled fluid or tissue.

The record behind these values is patent US10266806B2, “Stem cell-derived hepatocytes in co-culture and uses thereof” (Colorado State University Research Foundation, priority 2014, dated 2019).
